The record followed here is US8461184B2, “Sulphur containing pyrazole derivatives as selective cannabinoid CB1 receptor antagonists” (Solvay Pharmaceuticals B.V., priority 2006, dated 2013).

Like-named read-outs stand apart in the source and are kept apart here.

The target in data set [1] is T1, human cannabinoid CB1 receptor (Homo sapiens, UniProt P21554).
T1 construct: expressed in transfected cells; host or cells: Chinese hamster ovary (CHO) cells, membrane preparation
Briefly: In vitro affinity for human cannabinoid-CB1 receptors ([3H]CP-55,940 radioligand, CHO cell membranes). The class given is binding. The settings on record: for CB1/CB2 ratio: CB1/CB2 receptor selectivity ratio from hCB1 and hCB2 Ki; for Ki: human CB1 receptor in CHO cell membranes, [3H]CP-55,940, mean of at least three independent experiments, read-out: hCB1 Ki. How it is done:
In vitro affinity for human cannabinoid-CB1 receptors.
The affinity of the compounds of the invention for cannabinoid CB1 receptors can be determined using membrane preparations of Chinese hamster ovary (CHO) cells in which the human cannabinoid CB1 receptor is stably transfected in conjunction with [^3H]CP-55,940 as radioligand. After incubation of a freshly prepared cell membrane preparation with the [^3H]-ligand, with or without addition of compounds of the invention, separation of bound and free ligand is performed by filtration over glassfiber filters. Radioactivity on the filter is measured by liquid scintillation counting.

For data set [2], the target named is T2, human cannabinoid CB2 receptor (Homo sapiens, UniProt P34972).
T2 construct: expressed in transfected cells; host or cells: Chinese hamster ovary (CHO) cells, membrane preparation
The data set can be described thus: In vitro affinity for human cannabinoid-CB2 receptors ([3H]CP-55,940 radioligand, CHO cell membranes). The class given is binding. The settings on record: mean of at least three independent experiments, read-out: hCB2 Ki. How it is done:
In vitro affinity for human cannabinoid-CB2 receptors.
The affinity of the compounds of the invention for cannabinoid CB2 receptors can be determined using membrane preparations of Chinese hamster ovary (CHO) cells in which the human cannabinoid CB2 receptor is stably transfected in conjunction with [^3H]CP-55,940 as radioligand. After incubation of a freshly prepared cell membrane preparation with the [^3H]-ligand, with or without addition of compounds of the invention, separation of bound and free ligand is performed by filtration over glassfiber filters. Radioactivity on the filter was measured by liquid scintillation counting.

The target in a further data set is T3, CB1 receptor (Rattus norvegicus, UniProt P20272).
T3 construct: from tissue; host or cells: whole animal: male normotensive rats (Harlan)
Briefly: CP-55,940 induced hypotension in the rat. The class given is in vivo. Particulars: read-out: Blood pressure (rat) ED50. How it is done: Blood pressure was measured, via a cannula inserted into the left carotid artery, by means of a Spectramed DTX-plus pressure transducer (Spectramed B. V., Bilthoven, The Netherlands). […] Heart rate was derived from the pulsatile pressure signal. […] The injection volume was 10 ml/kg.

[3] abbreviates: p.o., antagonism of hypotension induced by CP-55,940 (0.1 mg/kg i.v.), anaesthetized male normotensive rats.

T3 sequence (P20272 whole entry): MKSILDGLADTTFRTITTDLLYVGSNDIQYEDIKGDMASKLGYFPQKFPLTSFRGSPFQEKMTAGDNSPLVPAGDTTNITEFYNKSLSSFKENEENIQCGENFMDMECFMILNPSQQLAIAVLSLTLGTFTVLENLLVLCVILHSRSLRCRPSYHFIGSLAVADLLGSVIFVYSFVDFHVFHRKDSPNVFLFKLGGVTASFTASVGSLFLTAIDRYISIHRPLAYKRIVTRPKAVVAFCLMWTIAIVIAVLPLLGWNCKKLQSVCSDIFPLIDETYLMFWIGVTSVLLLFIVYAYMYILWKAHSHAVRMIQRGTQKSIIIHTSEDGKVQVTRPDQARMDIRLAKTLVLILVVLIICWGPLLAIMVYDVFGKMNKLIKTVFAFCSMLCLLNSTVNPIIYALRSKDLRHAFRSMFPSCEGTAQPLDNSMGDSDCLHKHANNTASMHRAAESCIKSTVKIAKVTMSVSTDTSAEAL
T1 sequence (P21554 whole entry): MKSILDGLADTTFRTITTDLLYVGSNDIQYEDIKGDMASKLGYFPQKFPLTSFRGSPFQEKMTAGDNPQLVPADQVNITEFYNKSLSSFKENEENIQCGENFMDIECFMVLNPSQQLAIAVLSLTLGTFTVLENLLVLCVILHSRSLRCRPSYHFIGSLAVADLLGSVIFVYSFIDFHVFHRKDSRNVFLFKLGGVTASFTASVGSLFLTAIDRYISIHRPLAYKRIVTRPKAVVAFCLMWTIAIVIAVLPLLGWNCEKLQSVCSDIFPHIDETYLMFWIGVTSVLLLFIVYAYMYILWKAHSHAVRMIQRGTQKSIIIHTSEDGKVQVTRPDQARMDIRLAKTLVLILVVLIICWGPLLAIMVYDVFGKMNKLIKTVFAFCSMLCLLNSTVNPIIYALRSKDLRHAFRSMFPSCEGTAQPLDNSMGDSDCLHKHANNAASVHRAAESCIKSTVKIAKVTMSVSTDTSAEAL
T2 sequence (P34972 whole entry): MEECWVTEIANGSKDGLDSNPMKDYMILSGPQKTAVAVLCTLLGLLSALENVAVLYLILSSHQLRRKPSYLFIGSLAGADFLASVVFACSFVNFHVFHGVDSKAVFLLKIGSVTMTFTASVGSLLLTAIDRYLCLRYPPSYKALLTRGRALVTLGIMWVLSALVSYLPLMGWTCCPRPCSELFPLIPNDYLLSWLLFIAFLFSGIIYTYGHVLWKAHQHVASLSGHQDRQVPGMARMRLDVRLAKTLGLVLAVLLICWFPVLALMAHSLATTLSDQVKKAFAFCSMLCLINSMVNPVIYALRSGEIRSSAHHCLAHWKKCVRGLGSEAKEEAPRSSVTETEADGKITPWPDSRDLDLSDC

One may read the Ki as a dissociation constant, usually derived from enzyme kinetics or from competition with a known ligand. As a reminder, the ED50 is the dose that gives a 50% effect, or the effect in half of the subjects. As a reminder, the melting point is the temperature of the solid-liquid transition. For `CSc1c(C(=O)NN2CCCCC2)nn(-c2ccc(Cl)cc2Cl)c1-c1ccc(Cl)cc1` [Comp. 1, 5-(4-Chlorophenyl)-1-(2,4-dichlorophenyl)-4-methylsulfanyl-N-(piperidin-1-yl)-1H-pyrazole-3-carboxamide], the melting point is 172.4 to 174.5 °C. Further, in data set [1], the CB1/CB2 ratio came to 67 and the Ki came to 10 nM. Moreover, the Ki in data set [2] was 668 nM. Further, the ED50 on CB1 receptor is 1.5 mg/kg.

With `CSc1c(C(=O)NN2CCCC2)nn(-c2ccc(Cl)cc2Cl)c1-c1ccc(Cl)cc1` [Comp. 2, 5-(4-Chlorophenyl)-1-(2,4-dichlorophenyl)-4-methylsulfanyl-N-(pyrrolidin-1-yl)-1H-pyrazole-3-carboxamide], in data set [1], the CB1/CB2 ratio is greater than 34. Moreover, the Ki in data set [1] was less than 10 nM; in data set [2] it was 340 nM. For the same compound, the ED50 on CB1 receptor (setting [3]) was determined as 1.9 mg/kg.

On to `CSc1c(C(=O)NN2CCCCCC2)nn(-c2ccc(Cl)cc2Cl)c1-c1ccc(Cl)cc1` [Comp. 3, 5-(4-Chlorophenyl)-1-(2,4-dichlorophenyl)-4-methylsulfanyl-N-(azepan-1-yl)-1H-pyrazole-3-carboxamide], for which the CB1/CB2 ratio in data set [1] worked out at 25. Moreover, the Ki stood at 20 nM in data set [1] and 500 nM in data set [2]. The ED50 at CB1 receptor (setting [3]) was 3.1 mg/kg.
